Holding throughout (format): biochemical
One assay concerns the target T1, TEC (Homo sapiens, UniProt P42680).
T1 sequence (P42680 1-631): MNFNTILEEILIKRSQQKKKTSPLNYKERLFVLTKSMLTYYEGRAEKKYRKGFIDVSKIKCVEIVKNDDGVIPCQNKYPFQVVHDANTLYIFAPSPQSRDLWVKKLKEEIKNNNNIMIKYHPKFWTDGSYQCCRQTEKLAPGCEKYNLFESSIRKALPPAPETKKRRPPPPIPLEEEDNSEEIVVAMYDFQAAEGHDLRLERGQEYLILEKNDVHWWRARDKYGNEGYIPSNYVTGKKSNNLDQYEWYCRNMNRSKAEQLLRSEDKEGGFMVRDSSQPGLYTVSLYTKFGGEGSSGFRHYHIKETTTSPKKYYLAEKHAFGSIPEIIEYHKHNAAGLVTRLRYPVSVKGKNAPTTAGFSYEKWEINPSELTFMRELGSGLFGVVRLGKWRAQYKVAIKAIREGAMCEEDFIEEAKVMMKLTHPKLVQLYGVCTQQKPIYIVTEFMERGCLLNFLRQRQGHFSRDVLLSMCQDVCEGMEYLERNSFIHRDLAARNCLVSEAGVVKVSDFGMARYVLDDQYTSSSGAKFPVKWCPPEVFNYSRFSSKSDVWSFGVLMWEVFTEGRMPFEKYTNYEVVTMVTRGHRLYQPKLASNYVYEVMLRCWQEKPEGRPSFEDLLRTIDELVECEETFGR
Briefly: Inhibition of a panel of kinases (in vitro HotSpot kinase assay, 33P-ATP, 1 μM ATP). Conditions: for pIC50: HotSpot kinase assay, 1 μM ATP; for TEC/Btk: ratio of TEC IC50 to Btk IC50 (selectivity). Put shortly: (§1)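 Radiometric read-out: 33P transfer to a suitable substrate by each purified enzyme, ATP at 1 μM. Values are degree of inhibition.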

For the next assay, the target named is T2, Btk (Homo sapiens, UniProt Q06187).
T2 construct: purified from insect cells as a full-length construct containing a N-terminal 6X-His tag; His6 (N); made in house; host or cells: insect cells (Method C)
T2 sequence (Q06187 whole entry): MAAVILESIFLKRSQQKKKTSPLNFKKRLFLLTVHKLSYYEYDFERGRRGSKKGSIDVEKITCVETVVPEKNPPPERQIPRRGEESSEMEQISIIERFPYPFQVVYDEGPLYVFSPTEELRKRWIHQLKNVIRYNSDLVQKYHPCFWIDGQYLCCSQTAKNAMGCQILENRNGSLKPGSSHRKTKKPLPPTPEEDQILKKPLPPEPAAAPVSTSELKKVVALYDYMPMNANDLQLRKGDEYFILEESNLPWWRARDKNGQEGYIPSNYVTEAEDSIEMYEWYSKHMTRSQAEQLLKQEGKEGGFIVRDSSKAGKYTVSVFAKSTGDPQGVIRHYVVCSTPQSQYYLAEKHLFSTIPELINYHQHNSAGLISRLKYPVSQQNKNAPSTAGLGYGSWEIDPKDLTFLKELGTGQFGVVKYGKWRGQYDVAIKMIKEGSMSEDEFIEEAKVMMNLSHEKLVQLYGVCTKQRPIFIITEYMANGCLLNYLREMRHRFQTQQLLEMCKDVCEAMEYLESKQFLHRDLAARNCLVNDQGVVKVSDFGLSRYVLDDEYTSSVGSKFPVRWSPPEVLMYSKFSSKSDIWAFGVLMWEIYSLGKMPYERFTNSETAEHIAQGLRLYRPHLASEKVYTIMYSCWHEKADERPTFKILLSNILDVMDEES
Briefly: Btk in vitro inhibitory activity (one of Method A TR-FRET, Method B electrophoretic mobility shift, Method C radiometric filter binding). In short, it runs like this: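 Three alternative formats were used. A radiometric filter-binding read used 8 nM full-length His-BTK with 0.2 mg/mL poly(Glu-Tyr) 4:1 (C); microfluidic separation of 1 μM FAM-peptide by 1 nM BTK gave IC50 from 12-point curves (B); TR-FRET at Km ATP, 0.5 nM Btk, gave Ki(app)-derived IC50 (A).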

In the next assay the target is T3, panel of kinases (Homo sapiens, UniProt P51813).
T3 sequence (P51813 1-675): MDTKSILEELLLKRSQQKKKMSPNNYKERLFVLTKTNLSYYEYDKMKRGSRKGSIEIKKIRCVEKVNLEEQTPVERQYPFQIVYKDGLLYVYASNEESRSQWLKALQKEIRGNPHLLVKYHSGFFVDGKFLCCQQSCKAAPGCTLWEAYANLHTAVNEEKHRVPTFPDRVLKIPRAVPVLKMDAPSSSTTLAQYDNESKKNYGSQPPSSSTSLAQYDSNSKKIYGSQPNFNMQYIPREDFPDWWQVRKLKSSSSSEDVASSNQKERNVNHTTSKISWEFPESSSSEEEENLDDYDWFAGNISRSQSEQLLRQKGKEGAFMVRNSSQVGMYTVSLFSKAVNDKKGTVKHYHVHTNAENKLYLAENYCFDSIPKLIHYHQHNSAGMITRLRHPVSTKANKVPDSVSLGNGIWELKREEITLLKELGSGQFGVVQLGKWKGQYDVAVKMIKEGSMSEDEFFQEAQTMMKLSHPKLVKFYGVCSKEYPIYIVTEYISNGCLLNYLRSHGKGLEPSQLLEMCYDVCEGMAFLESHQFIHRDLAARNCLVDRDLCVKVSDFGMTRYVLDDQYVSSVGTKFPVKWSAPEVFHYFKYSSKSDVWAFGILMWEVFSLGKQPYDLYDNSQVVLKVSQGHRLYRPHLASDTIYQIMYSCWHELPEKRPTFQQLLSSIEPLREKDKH
Put plainly: Inhibition of a panel of kinases (in vitro HotSpot kinase assay, 33P-ATP, 1 μM ATP), other kinases. Conditions: BMX wild-type, read-out: BMX-WT IC50. In short, it runs like this: as §1

Setting [1] is: wild-type Btk, read-out: Btk-WT IC50.
[2] abbreviates: method is one of A, B or C, not stated which, read-out: IC50 values against Btk.

These results are taken from US20180194762A1 (Pharmacyclics LLC, priority 2017, published 2018).

pIC50: −log10 of the molar value. Where two headings read alike, the source gives them in different places. A value given as a limit tells only on which side of the number the result lay.

For orientation: pIC50 means the negative decadic logarithm of the IC50, by convention in mol/L.

Consider `C[C@@H](NC(=O)c1cc(C(C)(C)O)on1)c1ccc(-c2ccnc3[nH]nc(NC4CCCC4)c23)cc1` [Example 397, N-[(1R)-1-{4-[3-(cyclopentylamino)-1H-pyrazolo[3,4-b]pyridin-4-yl]phenyl}ethyl]-5-(2-hydroxypropan-2-yl)-1,2-oxazole-3-carboxamide], for which the results for the negative logarithm of the IC50 (pIC50) at TEC, on Btk (setting [1]) and on panel of kinases were 5.22, 6.42 and 5.47, respectively.
On the same counts, the results for `C=CC(=O)N1CC[C@@H](Nc2n[nH]c3nccc(-c4ccc(CNC(=O)c5ccc6ocnc6c5)c(F)c4)c23)C1` [Example 379, (R)-N-{[2-fluoro-4-(3-{[1-(prop-2-enoyl)pyrrolidin-3-yl]amino}-1H-pyrazolo[3,4-b]pyridin-4-yl)phenyl]methyl}-1,3-benzoxazole-5-carboxamide] are 6.13, 7.19 and 6.85.
As for `CC(C)(C)c1nc(C(=O)NCc2ccc(-c3ccnc4[nH]nc(N[C@H]5CC[C@H](O)CC5)c34)cc2F)no1` [Compound 21, 5-tert-butyl-N-{[2-fluoro-4-(3-{[(1r,4r)-4-hydroxycyclohexyl]amino}-1H-pyrazolo[3,4-b]pyridin-4-yl)phenyl]methyl}-1,2,4-oxadiazole-3-carboxamide], the negative-log IC50 (pIC50) against TEC was 5.50; on Btk (setting [1]), 7.27; on panel of kinases it was 5.36. The TEC/Btk on TEC is recorded as 59.
On to `C=CC(=O)NC1CCN(c2n[nH]c3nccc(-c4ccc([C@@H](C)NC(=O)c5cc(C(C)(C)O)on5)cc4)c23)CC1` [Example 364, 5-(2-hydroxypropan-2-yl)-N-{(1R)-1-[4-(3-{4-[(prop-2-enoyl)amino]piperidin-1-yl}-1H-pyrazolo[3,4-b]pyridin-4-yl)phenyl]ethyl}-1,2-oxazole-3-carboxamide], for which the figures for the pIC50 against TEC, at Btk (setting [1]) and on panel of kinases were 5.03, 7.26 and 5.24, respectively.
On the same counts, the results for `C=CC(=O)N1CCC(Nc2n[nH]c3nccc(-c4ccc(CNCc5noc(C(C)(C)C)n5)c(F)c4)c23)C1` (stereo not drawn) [Example 310, 1-[3-({4-[4-({[(5-tert-butyl-1,2,4-oxadiazol-3-yl)methyl]amino}methyl)-3-fluorophenyl]-1H-pyrazolo[3,4-b]pyridin-3-yl}amino)pyrrolidin-1-yl]prop-2-en-1-one] are 5.52, 6.97 and 6.33.
Take `C=CC(=O)N1CC[C@@H](Nc2n[nH]c3nccc(-c4ccc(C5(NC(=O)c6nc(C(C)(C)C)no6)CC5)cc4)c23)C1` [Example 86, 3-tert-butyl-N-{1-[4-(3-{[(3R)-1-(prop-2-enoyl)pyrrolidin-3-yl]amino}-1H-pyrazolo[3,4-b]pyridin-4-yl)phenyl]cyclopropyl}-1,2,4-oxadiazole-5-carboxamide]: the negative-log IC50 (pIC50) is 6.67 at TEC, > 8.00 at Btk (setting [2]), 9.62 at Btk (setting [1]) and 6.66 at panel of kinases. Further, at TEC, the TEC/Btk was found to be 880.
`CN(C)C/C=C/C(=O)N1CC[C@@H](Nc2n[nH]c3nccc(-c4ccc(CNC(=O)c5noc(C(C)(C)C)n5)c(F)c4)c23)C1` [Example 25, 5-tert-butyl-N-{[4-(3-{[(3R)-1-[(2E)-4-(dimethylamino)but-2-enoyl]pyrrolidin-3-yl]amino}-1H-pyrazolo[3,4-b]pyridin-4-yl)-2-fluorophenyl]methyl}-1,2,4-oxadiazole-3-carboxamide]: the pIC50 at TEC is 6.76; at Btk (setting [2]), > 8.00; at Btk (setting [1]) it was 9.32; at panel of kinases it was 6.10.
For `CC(=O)N[C@@H]1CCN(c2n[nH]c3nccc(-c4ccc(CNC(=O)c5nc(C(C)C)no5)c(F)c4)c23)C1` [Example 200, N-[(4-{3-[(3R)-3-acetamidopyrrolidin-1-yl]-1H-pyrazolo[3,4-b]pyridin-4-yl}-2-fluorophenyl)methyl]-3-(propan-2-yl)-1,2,4-oxadiazole-5-carboxamide], the results for the negative-log IC50 (pIC50) against TEC, at Btk (setting [1]) and on panel of kinases were 5.83, 8.37 and 5.85, respectively. In addition, the TEC/Btk at TEC came out at 343.
Consider `C=CC(=O)N1CC[C@@H](Nc2n[nH]c3nccc(-c4ccc([C@H](C)NC(=O)c5noc(C(C)(C)C)n5)c(F)c4)c23)C1` [Example 303, 5-tert-butyl-N-{(1S)-1-[2-fluoro-4-(3-{[(3R)-1-(prop-2-enoyl)pyrrolidin-3-yl]amino}-1H-pyrazolo[3,4-b]pyridin-4-yl)phenyl]ethyl}-1,2,4-oxadiazole-3-carboxamide], for which the pIC50 against TEC was 6.62; at Btk (setting [1]) it was 8.98; at panel of kinases it was 6.92.
With `CC(C)(C)c1nc(C(=O)NCc2ccc(-c3ccnc4[nH]nc(NC5CCNCC5)c34)cc2F)no1` [Example 109, 5-tert-butyl-N-[(2-fluoro-4-{3-[(piperidin-4-yl)amino]-1H-pyrazolo[3,4-b]pyridin-4-yl}phenyl)methyl]-1,2,4-oxadiazole-3-carboxamide], the negative logarithm of the IC50 (pIC50) was 5.08 on TEC, 7.52 at Btk (setting [1]) and 5.38 at panel of kinases.
In the case of `C=CC(=O)N1CC[C@@H](Nc2n[nH]c3nccc(-c4ccc(CNC(=O)c5ccc(OC)cc5)c(F)c4)c23)C1` [Compound 49, (R)—N-(4-(3-((1-acryloylpyrrolidin-3-yl)amino)-1H-pyrazolo[3,4-b]pyridin-4-yl)-2-fluorobenzyl)-4-methoxybenzamide], the pIC50 against TEC is 7.15; on Btk (setting [1]), 8.75; on panel of kinases, 7.05. Also, the TEC/Btk on TEC was found to be 39.
In the case of `CN(C)C(=O)N1CC[C@@H](Nc2n[nH]c3nccc(-c4ccc(CNC(=O)c5nc(C(C)(C)C)no5)c(F)c4)c23)C1` [Example 120, 3-tert-butyl-N-{[4-(3-{[(3R)-1-(dimethylcarbmoyl)pyrrolidin-3-yl]amino}-1H-pyrazolo[3,4-b]pyridin-4-yl)-2-fluorophenyl]methyl}-1,2,4-oxadiazole-5-carboxamide], the negative-log IC50 (pIC50) was 5.15 against TEC, > 8.00 at Btk (setting [2]), 8.13 on Btk (setting [1]) and 5.28 at panel of kinases. Moreover, the TEC/Btk at TEC came out at 965.
For `CCn1cc(C(=O)NCc2ccc(-c3ccnc4[nH]nc(N[C@H]5CC[C@H](O)CC5)c34)cc2F)cn1` [Compound 20, 1-ethyl-N-{[2-fluoro-4-(3-{[(1r,4r)-4-hydroxycyclohexyl]amino}-1H-pyrazolo[3,4-b]pyridin-4-yl)phenyl]methyl}-1H-pyrazole-4-carboxamide], the pIC50 on TEC is < 5.00; at Btk (setting [1]), < 5.00; on panel of kinases it was 5.28.
Turning to `CC(=O)N1C[C@H](Nc2n[nH]c3nccc(-c4ccc(CNC(=O)c5nc(C(C)(C)C)no5)c(F)c4)c23)CC[C@@H]1C` [Example 408, N-{[4-(3-{[(3R,6S)-1-acetyl-6-methylpiperidin-3-yl]amino}-1H-pyrazolo[3,4-b]pyridin-4-yl)-2-fluorophenyl]methyl}-3-tert-butyl-1,2,4-oxadiazole-5-carboxamide], the pIC50 on TEC is 6.96; at Btk (setting [1]), 9.38; at panel of kinases it was 6.06.
Consider `C=CC(=O)N1CC[C@@H](Nc2n[nH]c3nccc(-c4ccc([C@H](C)NC(=O)c5ccc(C(C)(C)C)cc5)cc4)c23)C1` [Example 97, 4-tert-butyl-N-[(1S)-1-[4-(3-{[(3R)-1-(prop-2-enoyl)pyrrolidin-3-yl]amino}-1H-pyrazolo[3,4-b]pyridin-4-yl)phenyl]ethyl]benzamide], for which the values for the negative logarithm of the IC50 (pIC50) on TEC, on Btk (setting [1]) and at panel of kinases were 5.80, 6.51 and 6.15, respectively. Besides, the TEC/Btk on TEC is 5.
